In patent publication US8383581B2, “Short-chain peptides as parathyroid hormone (PTH) receptor agonist” (Cadila Healthcare Limited, priority 2009, dated 2013):
Where a SMILES comes first, the peptide text is derived from it. [ ]: non-standard residue; d: D form. ξ: configuration not given here. ξBip(2'-Et-4'-OMe) = CCc1cc(OC)ccc1-c1ccc(CC(N)C(=O)O)cc1; ξαMePhe(2,6-F2) = CC(N)(Cc1c(F)cccc1F)C(=O)O; ξαMe(hhPhe) = CC(N)(CCCc1ccccc1)C(=O)O; ξαMePhe(2-F) = CC(N)(Cc1ccccc1F)C(=O)O; hArg = N=C(N)NCCCC[C@H](N)C(=O)O; Cit = NC(=O)NCCC[C@H](N)C(=O)O; ξhhPhe = NC(CCCc1ccccc1)C(=O)O; ξαMeF = CC(N)(Cc1ccccc1)C(=O)O; NMeV = CN[C@H](C(=O)O)C(C)C; ξαMeNle = CCCCC(C)(N)C(=O)O; Nle = CCCC[C@H](N)C(=O)O; Orn = NCCC[C@H](N)C(=O)O; ξαMeP = CC1(C(=O)O)CCCN1; Ac5c = NC1(C(=O)O)CCCC1; Ac3c = NC1(C(=O)O)CC1; Aib = CC(C)(N)C(=O)O

Test system: ovariectomised (OVX) rats
Assay: In vivo anti-osteoporosis activity testing in OVX rat model (serum calcium, phosphate, bone parameters)
Parameters: species or system Female Wistar Rats
Conditions: po
Text: c) In Vivo Anti-Osteoporosis Activity Testing in OVX Rat Model: The ovariectomised (OVX) rats were used to study anti-osteoporosis activity of test compounds (short-chain peptides) in vivo. The OVX rats develop osteopenia due to ovarian hormone deficiency. Osteopenia can be detected as early as 14 days post OVX, increase for the next 100 days and then stabilised (Wronski T. J., et al., Calcif. Tissue Int., 43(3), 1988, 179-183). Detailed Study Protocol to Evaluate the Effects of Anabolic Therapy on Bone Markers and Histomorphometry in OVX Animals: 10 to 11 weeks old Female Wistar Rats (150-200 g) were used. The animals were kept in individually ventilated cages in a room with controlled temperature (23°±3° C.), lighting (12:12 h light-dark cycle) and relative humidity (55±10%). Animals had free access to standard rat chow and water. Protocol for use of animals for conducting this study has been reviewed and approved by Institutional Animal Ethics Committee (IAEC). The animals were marked with picric acid for identification and acclimatized to experimental room conditions for 2 days prior to initiation of the study. For the induction of osteoporosis, rats were bilaterally ovariectomised under anesthesia. For Ovariectomy, Incision was made on dorsa-lateral side near lumbar region of animal. After that, ovary was excised and the veins were tied with ligature before removing ovary to prevent blood loss. Then incision was sutured back with ligature. After Bilateral ovariectomy, animals were allowed to rest for 4 weeks. They were then divided into different groups (n=9) based on their body weight. The groups consisted of a no treatment control, PTH as standard and one or two groups of test compounds (short-chain peptides). The treatment was given for the duration of 6 weeks. At the last day of treatment animals were kept overnight in metabolic cages under fasting for the collection of Urine. Next day, blood was collected after 24 hours of last dosing and animals were sacrificed. Changes in biochemical parameters and bone turnover parameters (Increase in serum Calcium and decrease in Phosphate levels, Acid Phosphatase and TRAP) were evaluated in the urine and serum. After sacrificing, intact femur and tibial bones are removed and cleaned from adherent tissues, muscles and tendons; weighed and collected in formal saline (10% formaldehyde solution). Lumbar vertebra (L5) was excised, carefully cleaned and collected in formal saline. Femur, tibia and Lumbar vertebra-5 (L5) were later processed for histomorphometric evaluation (Zhang L., et al., Tohoku J Exp Med., 1998, 186(2), 131-41; Tanizawa T., et al., Toxicol Lett., 1998, 102, 399-403).

SMILES: CCCC[C@H](NC(=O)C(C)(Cc1c(F)cccc1F)NC(=O)[C@H](CCC(N)=O)NC(=O)[C@@H](NC(=O)[C@H](CCC(=O)O)NC(=O)C1(NC(=O)[C@@H](NC(=O)C2(N)CCCC2)C(C)C)CCCC1)[C@@H](C)CC)C(=O)N[C@@H](Cc1c[nH]cn1)C(=O)N[C@@H](CCC(N)=O)C(=O)N[C@@H](CCCCNC(=N)N)C(=O)NC(C)(C)C(=O)N[C@@H](CCCCN)C(=O)NC(C)(Cc1c(F)cccc1F)C(N)=O (stereo partly shown) [Seq. ID. 117] (H-[Ac5c]V[Ac5c]EIQ[ξαMePhe(2,6-F2)][Nle]HQ[hArg][Aib]K[ξαMePhe(2,6-F2)]-NH2)
- % decrease in serum PO4 Levels (mg/dl) vs control (3 mg/kg): 99%
- % increase in serum Ca^2+ Levels (mg/dl) vs control (3 mg/kg): 110%

SMILES: CCc1cc(OC)ccc1-c1ccc(CC(NC(=O)[C@H](CCCCN)NC(=O)[C@H](C)NC(=O)[C@H](CCCCNC(=N)N)NC(=O)[C@H](CCC(N)=O)NC(=O)[C@H](Cc2c[nH]cn2)NC(=O)[C@H](CCSC)NC(=O)[C@H](CC(C)C)NC(=O)[C@H](CCC(N)=O)NC(=O)[C@@H](NC(=O)[C@H](CCC(=O)O)NC(=O)C2(NC(=O)[C@@H](NC(=O)C(C)(C)N)C(C)C)CC2)[C@@H](C)CC)C(=O)NC(CCCc2ccccc2)C(N)=O)cc1 (stereo partly shown) [Seq. ID. 607] (H-[Aib]V[Ac3c]EIQLMHQ[hArg]AK[ξBip(2'-Et-4'-OMe)][ξhhPhe]-NH2)
- % decrease in serum PO4 Levels (mg/dl) vs control (0.01 mg/kg): 88%
- % increase in serum Ca^2+ Levels (mg/dl) vs control (0.01 mg/kg): 78%

SMILES: CCCC[C@H](NC(=O)[C@H](CC(C)C)NC(=O)[C@H](CCC(N)=O)NC(=O)[C@@H](NC(=O)[C@H](CCC(=O)O)NC(=O)C(C)(C)NC(=O)[C@@H](NC(=O)C1(N)CCCC1)C(C)C)[C@@H](C)CC)C(=O)N[C@@H](Cc1c[nH]cn1)C(=O)N[C@@H](CCC(N)=O)C(=O)NC(C)(Cc1c(F)cccc1F)C(=O)N[C@@H](C)C(=O)NC(C)(Cc1c(F)cccc1F)C(=O)NC(Cc1ccc(-c2ccc(OC)cc2CC)cc1)C(=O)NC(CCCc1ccccc1)C(N)=O (stereo partly shown) [Seq. ID. 801] (H-[Ac5c]V[Aib]EIQL[Nle]HQ[ξαMePhe(2,6-F2)]A[ξαMePhe(2,6-F2)][ξBip(2'-Et-4'-OMe)][ξhhPhe]-NH2)
- % decrease in serum PO4 Levels (mg/dl) vs control (3 mg/kg): 65%
- % increase in serum Ca^2+ Levels (mg/dl) vs control (3 mg/kg): 59%

SMILES: CCCCC(C)(NC(=O)[C@H](CC(C)C)NC(=O)[C@H](CCC(N)=O)NC(=O)[C@@H](NC(=O)[C@H](CCC(=O)O)NC(=O)C(C)(C)NC(=O)[C@@H](NC(=O)C1(NC(=O)[C@@H](NC)C(C)C)CCCC1)C(C)C)[C@@H](C)CC)C(=O)N[C@@H](Cc1c[nH]cn1)C(=O)N[C@@H](CCC(N)=O)C(=O)N[C@@H](CCCCNC(=N)N)C(=O)N[C@@H](C)C(=O)N[C@@H](CCCCNC(=N)N)C(=O)NC(C)(Cc1ccccc1F)C(=O)NC(C)(CCCc1ccccc1)C(N)=O (stereo partly shown) [Seq. ID. 941] (H-[NMeV][Ac5c]V[Aib]EIQL[ξαMeNle]HQ[hArg]A[hArg][ξαMePhe(2-F)][ξαMe(hhPhe)]-NH2)
- % decrease in serum PO4 Levels (mg/dl) vs control (0.9 mg/kg): 95%
- % increase in serum Ca^2+ Levels (mg/dl) vs control (0.9 mg/kg): 99%

SMILES: CCCC[C@H](NC(=O)C(C)(Cc1c(F)cccc1F)NC(=O)[C@H](CCC(N)=O)NC(=O)[C@@H](NC(=O)[C@H](CCC(=O)O)NC(=O)C(C)(C)NC(=O)[C@@H](NC(=O)C1(N)CCCC1)C(C)C)[C@@H](C)CC)C(=O)N[C@@H](Cc1c[nH]cn1)C(=O)N[C@@H](CCC(N)=O)C(=O)N[C@@H](CCCNC(N)=O)C(=O)N[C@@H](C)C(=O)NC(C)(Cc1c(F)cccc1F)C(=O)NC(C)(Cc1c(F)cccc1F)C(N)=O (stereo partly shown) [Seq. ID. 391] (H-[Ac5c]V[Aib]EIQ[ξαMePhe(2,6-F2)][Nle]HQ[Cit]A[ξαMePhe(2,6-F2)][ξαMePhe(2,6-F2)]-NH2)
- % decrease in serum PO4 Levels (mg/dl) vs control (0.1 mg/kg): 59%
- % increase in serum Ca^2+ Levels (mg/dl) vs control (0.1 mg/kg): 82%

SMILES: CCCC[C@H](NC(=O)C(C)(Cc1c(F)cccc1F)NC(=O)[C@H](CCC(N)=O)NC(=O)[C@@H](NC(=O)[C@H](CCC(=O)O)NC(=O)C(C)(C)NC(=O)[C@@H](NC(=O)C1(N)CC1)C(C)C)[C@@H](C)CC)C(=O)N[C@@H](Cc1c[nH]cn1)C(=O)N[C@@H](CCC(N)=O)C(=O)N[C@@H](CCCCNC(=N)N)C(=O)N[C@@H](C)C(=O)N[C@@H](CCCCN)C(=O)NC(C)(Cc1ccccc1)C(N)=O (stereo partly shown) [Seq. ID. 39] (H-[Ac3c]V[Aib]EIQ[ξαMePhe(2,6-F2)][Nle]HQ[hArg]AK[ξαMeF]-NH2)
- % decrease in serum PO4 Levels (mg/dl) vs control (0.03 mg/kg): 66%
- % increase in serum Ca^2+ Levels (mg/dl) vs control (0.03 mg/kg): 88%

SMILES: CCCC[C@H](NC(=O)C(C)(Cc1ccccc1F)NC(=O)[C@H](CCC(N)=O)NC(=O)[C@@H](NC(=O)[C@H](CCC(=O)O)NC(=O)C1(NC(=O)[C@@H](NC(=O)C2(N)CCCC2)C(C)C)CCCC1)[C@@H](C)CC)C(=O)N[C@@H](Cc1c[nH]cn1)C(=O)N[C@@H](CCC(N)=O)C(=O)N[C@@H](CCCCNC(=N)N)C(=O)N[C@@H](C)C(=O)N[C@@H](CCCCN)C(=O)NC(C)(Cc1c(F)cccc1F)C(N)=O (stereo partly shown) [Seq. ID. 99] (H-[Ac5c]V[Ac5c]EIQ[ξαMePhe(2-F)][Nle]HQ[hArg]AK[ξαMePhe(2,6-F2)]-NH2)
- % decrease in serum PO4 Levels (mg/dl) vs control (2 mg/kg): 89%
- % increase in serum Ca^2+ Levels (mg/dl) vs control (2 mg/kg): 99%

SMILES: CC[C@H](C)[C@H](NC(=O)[C@H](CCC(=O)O)NC(=O)C(C)(C)NC(=O)[C@@H](NC(=O)C(C)(C)N)C(C)C)C(=O)N[C@@H](CCC(N)=O)C(=O)N[C@@H](CC(C)C)C(=O)N[C@@H](CCSC)C(=O)N[C@@H](Cc1c[nH]cn1)C(=O)N[C@@H](CCC(N)=O)C(=O)N[C@@H](CCCCNC(=N)N)C(=O)N1CCCC1(C)C(=O)N[C@@H](CCCCN)C(=O)NC(C)(Cc1ccccc1)C(N)=O (stereo partly shown) [Seq. ID. 7] (H-[Aib]V[Aib]EIQLMHQ[hArg][ξαMeP]K[ξαMeF]-NH2)
- % decrease in serum PO4 Levels (mg/dl) vs control (1 mg/kg): 88%
- % increase in serum Ca^2+ Levels (mg/dl) vs control (1 mg/kg): 90%

SMILES: CC[C@H](C)[C@H](NC(=O)[C@H](CCC(=O)O)NC(=O)C(C)(C)NC(=O)[C@@H](NC(=O)C1(N)CC1)C(C)C)C(=O)N[C@@H](CCC(N)=O)C(=O)N[C@@H](CC(C)C)C(=O)N[C@@H](CCSC)C(=O)N[C@@H](Cc1c[nH]cn1)C(=O)N[C@@H](CCC(N)=O)C(=O)N[C@@H](CCCCNC(=N)N)C(=O)N1CCCC1(C)C(=O)N[C@@H](CCCCN)C(=O)NC(C)(Cc1ccccc1)C(N)=O (stereo partly shown) [Seq. ID. 12] (H-[Ac3c]V[Aib]EIQLMHQ[hArg][ξαMeP]K[ξαMeF]-NH2)
- % decrease in serum PO4 Levels (mg/dl) vs control (5 mg/kg): 102%
- % increase in serum Ca^2+ Levels (mg/dl) vs control (5 mg/kg): 118%

SMILES: CCCC[C@H](NC(=O)C(C)(Cc1c(F)cccc1F)NC(=O)[C@H](CCC(N)=O)NC(=O)[C@@H](NC(=O)[C@H](CCC(=O)O)NC(=O)C(C)(C)NC(=O)[C@@H](NC(=O)C1(N)CCCC1)C(C)C)[C@@H](C)CC)C(=O)N[C@@H](Cc1c[nH]cn1)C(=O)N[C@@H](CCC(N)=O)C(=O)N[C@@H](CCCNC(N)=O)C(=O)N[C@@H](C)C(=O)NC(C)(C)C(=O)NC(Cc1ccc(-c2ccc(OC)cc2CC)cc1)C(=O)NC(CCCc1ccccc1)C(N)=O (stereo partly shown) [Seq. ID. 847] (H-[Ac5c]V[Aib]EIQ[ξαMePhe(2,6-F2)][Nle]HQ[Cit]A[Aib][ξBip(2'-Et-4'-OMe)][ξhhPhe]-NH2)
- % decrease in serum PO4 Levels (mg/dl) vs control (0.5 mg/kg): 79%
- % increase in serum Ca^2+ Levels (mg/dl) vs control (0.5 mg/kg): 77%

SMILES: CCCC[C@H](NC(=O)C(C)(Cc1c(F)cccc1F)NC(=O)[C@H](CCC(N)=O)NC(=O)[C@@H](NC(=O)[C@H](CCC(=O)O)NC(=O)C(C)(C)NC(=O)[C@@H](NC(=O)C(C)(C)N)C(C)C)[C@@H](C)CC)C(=O)N[C@@H](Cc1c[nH]cn1)C(=O)N[C@@H](CCC(N)=O)C(=O)N[C@@H](CCCN)C(=O)N[C@@H](C)C(=O)N[C@@H](CCCNC(N)=O)C(=O)NC(C)(Cc1c(F)cccc1F)C(N)=O (stereo partly shown) [Seq. ID. 293] (H-[Aib]V[Aib]EIQ[ξαMePhe(2,6-F2)][Nle]HQ[Orn]A[Cit][ξαMePhe(2,6-F2)]-NH2)
- % decrease in serum PO4 Levels (mg/dl) vs control (5 mg/kg): 75%
- % increase in serum Ca^2+ Levels (mg/dl) vs control (5 mg/kg): 67%
